Reference: patent publication US7868037B2 (PTC Therapeutics, Inc., priority 2004, dated 2011)
pIC50: −log10 of the molar value.

Test system: HCV replicon
Experiment: microbe, parasite or virus in culture
Format: cell-based, hepatitis C virus
Settings: Hepatitis C virus, read-out: Replicon IC50 μM

Compound | IC50 [µM]
CCn1c(-c2ccc(O)c(NC(=O)CCl)c2)c(C#N)c2ccc(OC)cc21 [Compound 333, 2-chloro-N-[5-(3-cyano-1-ethyl-6-methoxy-1H-indol-2-yl)-2-hydroxyphenyl]acetamide] | 0.5 to 2
COC(=O)c1cccc(-c2noc(-c3[nH]c4cc(OC)ccc4c3C#N)n2)c1 [Compound 226, methyl 3-[5-(3-cyano-6-methoxy-1H-indol-2-yl)-[1,2,4]oxadiazol-3-yl]benzoate] | > 2
CCn1c(C#Cc2ccc(NC(=O)NCCCl)cc2)c(C#N)c2ccc(OC)cc21 [Compound 156, 1-(2-chloroethyl)-3-[4-(3-cyano-1-ethyl-6-methoxy-1H-indol-2-ylethynyl)-phenyl]urea] | 0.5 to 2
CCn1c(-c2cccc(O)c2)c(C#N)c2ccc(OC)cc21 [Compound 288, 1-ethyl-2-(3-hydroxyphenyl)-6-methoxy-1H-indole-3-carbonitrile] | > 2
CCNC(=O)Nc1cccc(C#Cc2c(C#N)c3ccc(OC)cc3n2CC)c1 [Compound 220, 1-[3-(3-cyano-1-ethyl-6-methoxy-1H-indol-2-ylethynyl)phenyl]-3-ethyl urea] | 0.5 to 2
CCn1c(COc2ccccc2)c(C#N)c2ccc(OC)cc21 [Compound 99, 1-ethyl-6-methoxy-2-phenoxymethyl-1H-indole-3-carbonitrile] | > 2
CCn1c(C#Cc2ccc(NC(=O)C3CC3)cc2)c(C#N)c2ccc(O)cc21 [Compound 194, cyclopropanecarboxylic acid [4-(3-cyano-1-ethyl-6-hydroxy-1H-indol-2-ylethynyl)-phenyl]amide] | 0.5 to 2
CCn1c(-c2ccc(NC(=O)NCCCl)cc2)c(C#N)c2ccc(OC)cc21 [Compound 442, 1-(2-chloroethyl)-3-[4-(3-cyano-1-ethyl-6-methoxy-1H-indol-2-yl)-phenyl]-urea] | > 2
CCn1c(-c2ccc(N3CCOC3=O)cc2)c(C#N)c2ccc(OC(C)C)cc21 [Compound 638, 1-ethyl-6-isopropoxy-2-[4-(2-oxo-oxazolidin-3-yl)-phenyl]-1H-indole-3-carbonitrile] | > 2
CCn1c(-c2ccc([N+](=O)[O-])cc2)c(C#N)c2cc(C(C)=O)c(OC)cc21 [Compound 844, 5-acetyl-1-ethyl-6-methoxy-2-(4-nitro-phenyl)-1H-indole-3-carbonitrile] | > 2
CCn1c(-c2ccc([N+](=O)[O-])cc2)c(C#N)c2cc(CN3CCOCC3)c(OC)cc21 [Compound 845, 1-ethyl-6-methoxy-5-morpholin-4-ylmethyl-2-(4-nitro-phenyl)-1H-indole-3-carbonitrile] | > 2
COc1ccc(-n2cc(C#N)c3cc4c(cc32)OCO4)cc1 [Compound 44, 5-(4-methoxyphenyl)-5H-[1,3]dioxolo[4,5-f]indole-7-carbonitrile] | > 2
CCn1cc(-c2nccs2)c2ccc(OC)cc21 [Compound 73, 1-ethyl-6-methoxy-3-thiazol-2-yl-1H-indole] | > 2
CCn1c(-c2ccc(NS(=O)(=O)CCN3CCOCC3)cc2)c(C#N)c2ccc(OC)cc21 [Compound 653, 2-morpholin-4-yl-ethanesulfonic acid [4-(3-cyano-1-ethyl-6-methoxy-1H-indol-2-yl)-phenyl]amide] | > 2
CCn1c(-c2ccc(N3CCNC3=O)cc2)c(C#N)c2ccc(OC)cc21 [Compound 771, 1-ethyl-6-methoxy-2-[4-(2-oxo-imidazolidin-1-yl)-phenyl]-1H-indole-3-carbonitrile] | < 0.5
CCn1c(-c2ccc3oc(=O)[nH]c3c2)c(C#N)c2ccc(OC)cc21 [Compound 332, 1-ethyl-6-methoxy-2-(2-oxo-2,3-dihydro-benzooxazol-5-yl)-1H-indole-3-carbonitrile] | > 2

Same assay, conditions: Hepatitis C virus, read-out: Replicon IC50

Compound | pIC50
CCOC(=O)Nc1cccc(-c2c(C#N)c3ccc(OCCCN4CCCC4)cc3n2CC)c1 [Compound 530, {3-[3-cyano-1-ethyl-6-(3-pyrrolidin-1-yl-propoxy)-1H-indol-2-yl]-phenyl}-carbamic acid ethyl ester] | > 6.30

Same assay, conditions: read-out: Replicon IC50

Compound | pIC50
ethanesulfonic acid [4-(3-cyano-6-difluoromethoxy-1-ethyl-1H-indol-2-yl)-phenyl]-amide [Compound 519] | > 6.30
CCn1c(C#Cc2ccc(NP(C)(C)=O)cc2)c(C#N)c2ccc(OC)cc21 [Compound 227, N-[4-(3-cyano-1-ethyl-6-methoxy-1H-indol-2-ylethynyl)-phenyl]-dimethylphosphinic amide] | 5.70 to 6.30
C=Cn1c(-c2ccc(NS(=O)(=O)CCCCl)cc2)c(C#N)c2ccc(OC)cc21 [Compound 636] | 5.70 to 6.30
CCn1c(-c2ccc(NC(=O)C3CC3)cc2)c(C#N)c2cc(OC)ccc21 [Compound 244] | 5.70 to 6.30
N-(2-chloro-ethyl)-N′-[4-(3-cyano-1-ethyl-6-methoxy-1H-indol-2-yl)phenyl]sulfamide [Compound 724] | 5.70 to 6.30
CCn1cc(-c2ccon2)c2ccc(OC)cc21 [Compound 57, 1-ethyl-3-isoxazol-3-yl-6-methoxy-1-H-indole] | < 5.70

Test system: not given
Experiment: not given
Settings: not given

Compound | melting point [°C]
CCn1c(-c2ccc(O)c(NC(=O)CCl)c2)c(C#N)c2ccc(OC)cc21 [Compound 333, 2-chloro-N-[5-(3-cyano-1-ethyl-6-methoxy-1H-indol-2-yl)-2-hydroxyphenyl]acetamide] | 237 to 240
CCOc1ccc2c(C#N)c(-c3ccc(NC(=O)N4CCOCC4)cc3)n(C3CCC3)c2c1 [Compound 1166, morpholine-4-carboxylic acid [4-(3-cyano-1-cyclobutyl-6-ethoxy-1H-indol-2-yl)-phenyl]-amide] | 260 to 266
COC(=O)c1cccc(-c2noc(-c3[nH]c4cc(OC)ccc4c3C#N)n2)c1 [Compound 226, methyl 3-[5-(3-cyano-6-methoxy-1H-indol-2-yl)-[1,2,4]oxadiazol-3-yl]benzoate] | 294 to 295
CCn1c(C#Cc2ccc(NC(=O)NCCCl)cc2)c(C#N)c2ccc(OC)cc21 [Compound 156, 1-(2-chloroethyl)-3-[4-(3-cyano-1-ethyl-6-methoxy-1H-indol-2-ylethynyl)-phenyl]urea] | 205 to 209
COc1ccc2c(C#N)c(-c3ccc(NC(=O)OC(C)C)cc3)n(C3CC3)c2c1 [Compound 1234, [4-(3-cyano-1-cyclopropyl-6-methoxyindol-2-yl)phenyl]carbamic acid isopropyl ester] | 204 to 205
CCn1c(-c2cccc(O)c2)c(C#N)c2ccc(OC)cc21 [Compound 288, 1-ethyl-2-(3-hydroxyphenyl)-6-methoxy-1H-indole-3-carbonitrile] | 194 to 199
CCNC(=O)Nc1cccc(C#Cc2c(C#N)c3ccc(OC)cc3n2CC)c1 [Compound 220, 1-[3-(3-cyano-1-ethyl-6-methoxy-1H-indol-2-ylethynyl)phenyl]-3-ethyl urea] | 219 to 223
CCn1c(COc2ccccc2)c(C#N)c2ccc(OC)cc21 [Compound 99, 1-ethyl-6-methoxy-2-phenoxymethyl-1H-indole-3-carbonitrile] | 123.4 to 123.8
CCn1c(C#Cc2ccc(NC(=O)C3CC3)cc2)c(C#N)c2ccc(O)cc21 [Compound 194, cyclopropanecarboxylic acid [4-(3-cyano-1-ethyl-6-hydroxy-1H-indol-2-ylethynyl)-phenyl]amide] | 278 to 284
C=CCn1c(-c2ccc(N3CCCC3=O)cc2)c(C#N)c2ccc(OC)cc21 [Compound 938, 1-allyl-6-methoxy-2-[4-(2-oxopyrrolidin-1-yl)-phenyl]-1H-indole-3-carbonitrile] | 147 to 148
CCOc1ccc2c(C#N)c(-c3ccc(NC(=O)OC(C)C4CC4)cc3)n(C3CCC3)c2c1 (racemic) [Compound 1147, rac-[4-(3-cyano-1-cyclobutyl-6-ethoxy-1H-indol-2-yl)-phenyl]-carbamic acid 1-cyclopropyl-ethyl ester] | 154 to 158
CCOc1ccc2c(C#N)c(-c3ccc(N(CC)C(=O)OC4CCCC4)cc3)n(C3CCC3)c2c1 [Compound 1251, [4-(3-cyano-1-cyclobutyl-6-ethoxy-1H-indol-2-yl)-phenyl]-ethyl-carbamic acid cyclopentyl ester] | 137 to 142
CCn1c(-c2ccc(N3CCCS3(=O)=O)cc2)c(C#N)c2ccc(OC(F)(F)F)cc21 [Compound 903, 2-[4-(1,1-dioxidoisothiazolidin-2-yl)phenyl]-1-ethyl-6-(trifluoromethoxy)indole-3-carbonitrile] | 230 to 232
CCn1c(-c2ccc(NC(=O)OC)cc2)c(C#N)c2ccc(OC(F)F)cc21 [Compound 1130, [4-(3-cyano-6-difluoromethoxy-1-ethyl-1H-indol-2-yl)-phenyl]-carbamic acid methyl ester] | 177 to 178
CCNc1ccc(-c2c(C#N)c3ccc(OCC)cc3n2C2CCC2)cc1 [Compound 1239, 1-cyclobutyl-6-ethoxy-2-(4-ethylaminophenyl)-1H-indole-3-carbonitrile] | 187 to 193
CCn1c(-c2ccc(NS(=O)(=O)CC)cc2)c(C#N)c2ccc(OC(F)(F)F)cc21 [Compound 881, ethanesulfonic acid [4-(3-cyano-1-ethyl-6-trifluoromethoxyindol-2-yl)phenyl]amide] | 194 to 195
CCn1c(-c2ccc(N3CCCS3(=O)=O)cc2)c(C#N)c2ccc(OC3CC3)cc21 [Compound 1046, 6-cyclopropoxy-2-[4-(1,1-dioxo-1λ^6-isothiazolidin-2-yl)-phenyl]-1-ethyl-1H-indole-3-carbonitrile] | 232 to 234
CCOc1ccc2c(C#N)c(-c3ccc(N(CC)CC)cc3)n(C3CCC3)c2c1 [Compound 1217, 1-Cyclobutyl-2-(4-diethylamino-phenyl)-6-ethoxy-1H-indole-3-carbonitrile] | 135 to 141
CC(C)OC(=O)Nc1ccc(-c2c(C#N)c3ccc(OCCCn4cncn4)cc3n2C2CCC2)cc1 [Compound 1255, {4-[3-cyano-1-cyclobutyl-6-(3-[1,2,4]triazol-1-yl-propoxy)-1H-indol-2-yl]-phenyl}-carbamic acid isopropyl ester] | 208
CC(OC(=O)Nc1ccc(-c2c(C#N)c3ccc(OCCn4cncn4)cc3n2C2CCC2)cc1)C1CC1 (stereo not shown) [Compound 1329, {4-[3-cyano-1-cyclobutyl-6-(2-[1,2,4]triazol-1-yl-ethoxy)-1H-indol-2-yl]-phenyl}-carbamic acid 1-cyclopropyl-ethyl ester] | 98
CCn1c(-c2ccc(NC(=O)C3CC3)cc2)c(C#N)c2ccc(OCCn3ccnc3)cc21 [Compound 1183, cyclopropanecarboxylic acid {4-[3-cyano-1-ethyl-6-(2-imidazol-1-yl-ethoxy)-1H-indol-2-yl]-phenyl}-amide] | 202.3 to 205.9
CC(C)OC(=O)Nc1ccc(-c2c(C#N)c3ccc(OCCn4cncn4)cc3n2C2CCC2)cc1 [Compound 1276, {4-[3-cyano-1-cyclobutyl-6-(2-[1,2,4]triazol-1-yl-ethoxy)-1H-indol-2-yl]-phenyl}-carbamic acid isopropyl ester] | 214
CC(C)NC(=O)Nc1ccc(-c2c(C#N)c3ccc(OCCCn4cncn4)cc3n2C2CCC2)cc1 [Compound 1314, 1-{4-[3-cyano-1-cyclobutyl-6-(3-[1,2,4]triazol-1-yl-propoxy)-1H-indol-2-yl]-phenyl}-3-isopropyl-urea] | 88 to 90
